One may read the IC50 as the concentration that inhibits the measured activity by half. A word on the Ki: it is the dissociation constant of the complex between target and ligand, obtained from inhibition or displacement.

Our source for the IC50 and Ki values is ChEMBL document CHEMBL1909046, “DrugMatrix in vitro pharmacology data”.

One series addresses Carbonic anhydrase 2 (Homo sapiens, UniProt P00918). Description: DRUGMATRIX: Carbonic Anhydrase II enzyme inhibition (substrate: 4-Nitrophenyl acetate (4-NPA)). The settings on record: erythrocyte; Not Active = under 50% inhibition at 10 µM. In kind it is tissue-based, Erythrocyte.
Series [1] deals with T1, Alpha-1D adrenergic receptor (Homo sapiens, UniProt P25100).
T1 sequence (P25100 whole entry): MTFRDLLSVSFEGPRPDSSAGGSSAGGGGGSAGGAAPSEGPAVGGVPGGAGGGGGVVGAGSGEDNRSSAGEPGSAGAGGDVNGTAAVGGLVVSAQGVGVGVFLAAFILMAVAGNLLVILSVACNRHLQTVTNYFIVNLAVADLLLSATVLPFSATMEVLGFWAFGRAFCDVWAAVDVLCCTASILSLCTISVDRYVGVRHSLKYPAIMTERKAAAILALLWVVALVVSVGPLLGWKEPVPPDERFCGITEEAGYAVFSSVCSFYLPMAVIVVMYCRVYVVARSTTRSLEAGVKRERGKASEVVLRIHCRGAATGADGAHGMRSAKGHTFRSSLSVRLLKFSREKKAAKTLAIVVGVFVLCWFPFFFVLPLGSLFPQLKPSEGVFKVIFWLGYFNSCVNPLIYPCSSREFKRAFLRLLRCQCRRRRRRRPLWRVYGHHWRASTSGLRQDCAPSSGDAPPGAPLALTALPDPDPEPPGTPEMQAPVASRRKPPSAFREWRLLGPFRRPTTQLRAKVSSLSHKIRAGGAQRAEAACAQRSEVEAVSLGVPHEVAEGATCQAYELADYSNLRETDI
The format is cell membranes, HEK293, Membrane.

The target in another series is Cannabinoid receptor 1 (Homo sapiens, UniProt P21554). In kind it is cell membranes, Membrane. The settings on record: chem-1. Note: in other assays of this panel Not Active means under 50% inhibition at 10 µM.
Sequence of Cannabinoid receptor 1 (P21554 whole entry): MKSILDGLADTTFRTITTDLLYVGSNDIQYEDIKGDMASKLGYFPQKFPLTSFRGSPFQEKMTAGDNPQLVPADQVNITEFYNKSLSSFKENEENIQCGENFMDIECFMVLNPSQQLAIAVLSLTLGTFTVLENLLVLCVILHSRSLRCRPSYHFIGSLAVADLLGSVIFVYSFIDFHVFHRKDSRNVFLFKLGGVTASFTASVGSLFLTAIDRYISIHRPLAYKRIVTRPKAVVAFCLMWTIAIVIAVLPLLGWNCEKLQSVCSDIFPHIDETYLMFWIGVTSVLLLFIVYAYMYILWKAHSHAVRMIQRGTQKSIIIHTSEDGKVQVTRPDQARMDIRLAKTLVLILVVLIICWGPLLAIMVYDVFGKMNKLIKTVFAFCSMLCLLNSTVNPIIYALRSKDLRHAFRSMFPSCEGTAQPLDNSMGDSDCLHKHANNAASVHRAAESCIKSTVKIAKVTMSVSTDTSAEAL
In a further series the target is T2, Cytochrome P450 2A6 (Homo sapiens, UniProt P11509). Note: in other assays of this panel Not Active means under 50% inhibition at 10 µM.
T2 sequence (P11509 whole entry): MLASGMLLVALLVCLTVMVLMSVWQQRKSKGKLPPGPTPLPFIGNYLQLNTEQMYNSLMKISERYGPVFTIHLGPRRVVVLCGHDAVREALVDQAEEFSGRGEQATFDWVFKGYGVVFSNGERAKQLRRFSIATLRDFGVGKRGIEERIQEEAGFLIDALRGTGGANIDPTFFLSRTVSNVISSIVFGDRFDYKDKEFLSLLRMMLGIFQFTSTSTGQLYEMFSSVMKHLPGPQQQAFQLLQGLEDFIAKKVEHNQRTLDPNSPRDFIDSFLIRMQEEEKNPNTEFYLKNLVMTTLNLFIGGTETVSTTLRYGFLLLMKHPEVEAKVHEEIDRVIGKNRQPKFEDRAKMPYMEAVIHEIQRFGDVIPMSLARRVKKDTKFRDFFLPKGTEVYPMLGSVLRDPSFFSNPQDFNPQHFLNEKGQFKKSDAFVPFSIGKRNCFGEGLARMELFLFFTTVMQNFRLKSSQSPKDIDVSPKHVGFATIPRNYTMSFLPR
The settings on record: bti-tn-5b1-4.

The next series addresses Cytochrome P450 2C9 (Homo sapiens, UniProt P11712). The settings on record: bti-tn-5b1-4.
Series [2] is described as follows: DRUGMATRIX: Sigma2 radioligand binding (ligand: [3H] Ifenprodil). In kind it is cell membranes, Rattus norvegicus, Wistar, Brain, Membrane. The conditions noted are these: Not Active = under 50% inhibition at 10 µM.
Another series addresses T3, Adenosine receptor A3 (Homo sapiens, UniProt P0DMS8).
T3 sequence (P0DMS8 whole entry): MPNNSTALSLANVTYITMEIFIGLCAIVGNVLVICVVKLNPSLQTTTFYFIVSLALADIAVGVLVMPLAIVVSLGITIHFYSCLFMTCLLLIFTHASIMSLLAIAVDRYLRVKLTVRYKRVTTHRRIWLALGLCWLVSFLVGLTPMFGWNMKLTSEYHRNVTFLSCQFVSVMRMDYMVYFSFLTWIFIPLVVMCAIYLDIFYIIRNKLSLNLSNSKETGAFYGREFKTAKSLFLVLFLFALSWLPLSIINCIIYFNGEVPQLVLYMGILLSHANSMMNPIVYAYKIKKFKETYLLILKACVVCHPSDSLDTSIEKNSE
The format is cell membranes, CHO-K1, Membrane. The settings on record: cho-k1.

Series [3] deals with Mitogen-activated protein kinase 14 (Homo sapiens, UniProt Q16539). Set-up: species or system Escherichia coli.
Sequence of Mitogen-activated protein kinase 14 (Q16539 whole entry): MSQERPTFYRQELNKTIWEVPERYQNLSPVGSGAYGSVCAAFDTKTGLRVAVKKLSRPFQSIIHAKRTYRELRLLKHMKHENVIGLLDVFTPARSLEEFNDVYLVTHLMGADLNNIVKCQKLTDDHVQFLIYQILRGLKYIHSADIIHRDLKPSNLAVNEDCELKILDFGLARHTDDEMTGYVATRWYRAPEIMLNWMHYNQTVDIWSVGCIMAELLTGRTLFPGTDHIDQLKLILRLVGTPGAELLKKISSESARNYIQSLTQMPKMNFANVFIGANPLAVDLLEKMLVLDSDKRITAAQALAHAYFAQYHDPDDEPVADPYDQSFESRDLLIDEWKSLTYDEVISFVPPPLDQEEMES
The next series addresses T4, Leukotriene C4 synthase (Cavia porcellus, UniProt A6XA80).
T4 sequence (A6XA80 whole entry): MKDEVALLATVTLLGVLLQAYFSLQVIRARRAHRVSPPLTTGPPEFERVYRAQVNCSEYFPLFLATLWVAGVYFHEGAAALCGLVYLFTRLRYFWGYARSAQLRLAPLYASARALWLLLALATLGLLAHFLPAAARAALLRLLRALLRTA
Nature of the series: biochemical. The format is tissue-based, Lung.

The target in a further series is T5, Substance-K receptor (Homo sapiens, UniProt P21452). Note: in other assays of this panel Not Active means under 50% inhibition at 10 µM.
T5 sequence (P21452 whole entry): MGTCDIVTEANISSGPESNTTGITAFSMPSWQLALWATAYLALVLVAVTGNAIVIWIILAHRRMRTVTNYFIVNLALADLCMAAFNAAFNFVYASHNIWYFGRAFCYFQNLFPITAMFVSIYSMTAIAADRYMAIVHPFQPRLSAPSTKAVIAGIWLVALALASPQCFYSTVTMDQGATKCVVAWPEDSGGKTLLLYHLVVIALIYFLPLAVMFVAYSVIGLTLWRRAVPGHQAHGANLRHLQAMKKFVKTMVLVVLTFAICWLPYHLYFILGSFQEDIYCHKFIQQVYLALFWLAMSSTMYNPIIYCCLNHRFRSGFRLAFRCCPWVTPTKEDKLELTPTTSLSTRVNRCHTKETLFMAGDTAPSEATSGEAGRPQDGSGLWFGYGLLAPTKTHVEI
The format is cell membranes, CHO, Membrane. The conditions noted are these: cho.

The next series addresses Acetylcholinesterase (Homo sapiens, UniProt P22303). Description: DRUGMATRIX: Acetylcholinesterase enzyme inhibition (substrate: acetylthiocholine). The settings on record: hek293; Not Active = under 50% inhibition at 10 µM. The format is cell-based, HEK293.
Series [4] addresses Tyrosine-protein kinase Fyn (Homo sapiens, UniProt P06241). Description: biochemical. In kind it is cell-based, Insect cells. The settings on record: insect cells.
Series [5] is described as follows: DRUGMATRIX: GABAA, Muscimol, Central radioligand binding (ligand: [3H] Muscimol). The format is cell membranes, Rattus norvegicus, Wistar, Brain, Membrane. The conditions noted are these: Not Active = under 50% inhibition at 10 µM.

Sequence of Tyrosine-protein kinase Fyn (P06241 whole entry): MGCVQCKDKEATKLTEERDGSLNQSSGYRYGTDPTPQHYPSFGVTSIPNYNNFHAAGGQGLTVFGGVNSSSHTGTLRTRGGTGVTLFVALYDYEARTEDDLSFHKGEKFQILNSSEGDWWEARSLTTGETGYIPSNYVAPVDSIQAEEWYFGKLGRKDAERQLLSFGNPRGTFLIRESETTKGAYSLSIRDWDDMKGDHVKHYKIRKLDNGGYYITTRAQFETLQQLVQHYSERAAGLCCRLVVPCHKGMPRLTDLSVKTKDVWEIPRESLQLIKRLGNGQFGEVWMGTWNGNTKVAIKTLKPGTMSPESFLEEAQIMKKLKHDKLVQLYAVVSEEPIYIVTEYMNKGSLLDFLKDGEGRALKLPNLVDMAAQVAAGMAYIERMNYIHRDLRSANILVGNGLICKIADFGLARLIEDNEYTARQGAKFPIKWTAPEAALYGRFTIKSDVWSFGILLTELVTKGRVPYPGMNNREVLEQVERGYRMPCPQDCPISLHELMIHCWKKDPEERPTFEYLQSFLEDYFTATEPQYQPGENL
Sequence of Acetylcholinesterase (P22303 whole entry): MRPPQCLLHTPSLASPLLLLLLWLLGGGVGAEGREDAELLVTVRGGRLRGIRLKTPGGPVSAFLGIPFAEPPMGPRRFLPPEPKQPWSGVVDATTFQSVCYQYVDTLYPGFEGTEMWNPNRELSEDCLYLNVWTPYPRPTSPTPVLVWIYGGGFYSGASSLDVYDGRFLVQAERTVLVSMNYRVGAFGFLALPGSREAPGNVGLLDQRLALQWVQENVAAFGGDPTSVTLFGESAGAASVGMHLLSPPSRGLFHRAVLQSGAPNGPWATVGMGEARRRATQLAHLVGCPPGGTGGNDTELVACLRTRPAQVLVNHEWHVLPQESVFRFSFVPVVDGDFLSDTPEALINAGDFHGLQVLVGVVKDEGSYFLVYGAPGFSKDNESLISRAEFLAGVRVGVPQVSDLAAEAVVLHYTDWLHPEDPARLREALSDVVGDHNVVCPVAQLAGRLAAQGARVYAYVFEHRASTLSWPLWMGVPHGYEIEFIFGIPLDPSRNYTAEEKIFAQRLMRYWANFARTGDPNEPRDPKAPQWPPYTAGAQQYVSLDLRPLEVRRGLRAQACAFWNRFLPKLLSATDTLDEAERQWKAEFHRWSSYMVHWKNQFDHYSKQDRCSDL
Sequence of Cytochrome P450 2C9 (P11712 whole entry): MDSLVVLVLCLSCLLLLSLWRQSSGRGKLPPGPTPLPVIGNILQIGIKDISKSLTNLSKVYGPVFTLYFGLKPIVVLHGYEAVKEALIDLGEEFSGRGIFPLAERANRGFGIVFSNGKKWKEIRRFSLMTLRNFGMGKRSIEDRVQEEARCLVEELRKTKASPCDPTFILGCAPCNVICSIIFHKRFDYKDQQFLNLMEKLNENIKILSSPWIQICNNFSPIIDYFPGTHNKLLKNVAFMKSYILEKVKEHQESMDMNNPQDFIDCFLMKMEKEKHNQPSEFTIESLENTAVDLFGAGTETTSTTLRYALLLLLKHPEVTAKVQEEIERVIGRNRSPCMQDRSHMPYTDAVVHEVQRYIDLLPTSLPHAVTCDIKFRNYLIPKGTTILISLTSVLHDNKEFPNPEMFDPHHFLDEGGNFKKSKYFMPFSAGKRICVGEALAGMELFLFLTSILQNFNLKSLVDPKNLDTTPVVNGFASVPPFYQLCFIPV

Regarding `CC1(C)[C@@H](O[C@H]2O[C@H](C(=O)O)[C@@H](O)[C@H](O)[C@H]2O[C@@H]2O[C@H](C(=O)O)[C@@H](O)[C@H](O)[C@H]2O)CC[C@]2(C)[C@H]3C(=O)C=C4[C@@H]5C[C@@](C)(C(=O)O)CC[C@]5(C)CC[C@@]4(C)[C@]3(C)CC[C@@H]12` [GLYCYRRHIZIN], the IC50 result (on Carbonic anhydrase 2; in [1] (hek293); on Cannabinoid receptor 1; against Cytochrome P450 2A6; at Cytochrome P450 2C9; in series [2]) was “Not Active” throughout. In addition, the IC50 result (against Adenosine receptor A3; in [3]; on Leukotriene C4 synthase; against Substance-K receptor; on Acetylcholinesterase; in [4]) was “Not Active” in each case. Further, in series [5], the IC50 entry is recorded as “Not Active”. Further, the Ki result (on Cytochrome P450 2A6; at Cytochrome P450 2C9; in series [2]; in series [5]) was “Not Active” in each case.

With `COC1=CC(=O)C[C@@H](C)[C@]12Oc1c(Cl)c(OC)cc(OC)c1C2=O` [GRISEOFULVIN], the IC50 entry (at Carbonic anhydrase 2; in [1] (hek293); against Cannabinoid receptor 1; at Cytochrome P450 2A6; against Cytochrome P450 2C9; in series [2]) was “Not Active” in each case. The IC50 result (on Adenosine receptor A3; in [3]; on Leukotriene C4 synthase; on Substance-K receptor; on Acetylcholinesterase; in [4]) was “Not Active” in each case. Besides, in [5], the IC50 entry is on record as “Not Active”. For the same compound, the inhibition constant Ki result (on Cytochrome P450 2A6; on Cytochrome P450 2C9; in series [2]; in [5]) was “Not Active” each time.

`NS(=O)(=O)c1cc2c(cc1Cl)NCNS2(=O)=O` [HYDROCHLOROTHIAZIDE]: the IC50 entry (against Carbonic anhydrase 2; in series [1] (hek293); against Cannabinoid receptor 1; at Cytochrome P450 2A6; at Cytochrome P450 2C9; in series [2]) was “Not Active” throughout. In addition, the IC50 result (against Adenosine receptor A3; in series [3]; at Leukotriene C4 synthase; on Substance-K receptor; against Acetylcholinesterase; in [4]) was “Not Active” throughout. Also, the IC50 entry in series [5] is on record as “Not Active”. Also, the Ki result (on Cytochrome P450 2A6; at Cytochrome P450 2C9; in series [2]; in [5]) was “Not Active” throughout.

As to `O=C1CN=C(c2ccccc2)c2cc([N+](=O)[O-])ccc2N1` [NITRAZEPAM], the half-maximal inhibitory concentration (IC50) entry (against Carbonic anhydrase 2; in [1] (hek293); against Cannabinoid receptor 1; against Cytochrome P450 2A6; at Cytochrome P450 2C9; in series [2]) was “Not Active” throughout. The IC50 entry (at Adenosine receptor A3; in [3]; on Leukotriene C4 synthase; at Substance-K receptor; against Acetylcholinesterase; in series [4]) was “Not Active” each time. The IC50 result in series [5] was “Not Active”. Besides, the Ki result (at Cytochrome P450 2A6; on Cytochrome P450 2C9; in [2]; in series [5]) was “Not Active” in each case.

For the compound `CNCCC=C1c2ccccc2CCc2ccccc21` [NORTRIPTYLINE], the 50% inhibitory concentration (IC50) result at Carbonic anhydrase 2 was “Not Active”; in [1] (read-out: IC50), 273 nM; at Cannabinoid receptor 1, “Not Active”; at Cytochrome P450 2A6 it was “Not Active”; on Cytochrome P450 2C9, “Not Active”; in series [2], “Not Active”. The IC50 entry (against Adenosine receptor A3; in series [3]; on Leukotriene C4 synthase; against Substance-K receptor; on Acetylcholinesterase; in series [4]) was “Not Active” in each case. In [5], the IC50 result is listed as “Not Active”. In addition, the Ki is 134 nM in [1] (read-out: Ki); “Not Active” on Cytochrome P450 2A6; “Not Active” at Cytochrome P450 2C9; “Not Active” in [2]; “Not Active” in [5].

For the compound `CC1COc2c(N3CCN(C)CC3)c(F)cc3c(=O)c(C(=O)O)cn1c23` (stereo not drawn) [OFLOXACIN], the IC50 result (on Carbonic anhydrase 2; in series [1] (hek293); on Cannabinoid receptor 1; against Cytochrome P450 2A6; on Cytochrome P450 2C9; in series [2]) was “Not Active” each time. Also, the IC50 entry (against Adenosine receptor A3; in [3]; against Leukotriene C4 synthase; on Substance-K receptor; against Acetylcholinesterase; in [4]) was “Not Active” in each case. Further, the IC50 entry in [5] was “Not Active”. Also, the Ki result (on Cytochrome P450 2A6; at Cytochrome P450 2C9; in series [2]; in [5]) was “Not Active” throughout.
